Data set [1] in a line: Clearance in rat at 1 mg/kg, iv and 3 mg/kg, po. In kind it is ADME, organism-based. To be noted: in vivo.
Data set [2] can be described thus: Half life in rat at 1 mg/kg, iv and 3 mg/kg, po. Format: ADME, organism-based. Particulars: in vivo.
Data set [3] is described as follows: Volume of distribution at steady state in rat at 1 mg/kg, iv and 3 mg/kg, po. In kind it is ADME, organism-based. To be noted: in vivo, read-out: Vdss.
A short description of data set [4]: Oral bioavailability in rat at 3 mg/kg. Format: ADME, organism-based. To be noted: in vivo.
A short description of data set [5]: Aqueous solubility of compound in fed state simulated intestinal fluid at pH 6.5. In kind it is physicochemical.
Data set [6] can be described thus: Distribution coefficient, log D of compound. Particulars: octanol/water. In kind it is physicochemical.
Data set [7] can be described thus: Dissociation constant, pKa of the compound. In kind it is physicochemical.

Values after ≈ are worked out from the molar mass of the structure shown.

The values that follow come from ChEMBL document CHEMBL1833860 (Bioorg Med Chem Lett, 2011).

For `COc1ccc(Nc2nc(N[C@@H]3CCOC[C@@H]3N)ncc2C(N)=O)cc1`, the clearance in data set [1] was found to be 45 mL/min/kg. For the same molecule, in data set [2], the half-life was 2.3 h. Besides, the Vd in data set [3] worked out at 3.9 L/kg. In data set [4], this molecule showed a bioavailability of 10%.

Turning to `Cc1ccc(Nc2nc(N[C@@H]3CCOC[C@@H]3N)ncc2C(N)=O)cc1`, the clearance in data set [1] stood at 16 mL/min/kg. Also, the half-life in data set [2] is 4.2 h. The Vd in data set [3] was 4.1 L/kg. This molecule also gave a bioavailability in data set [4] of 30%. The concentration in solution in data set [5] (solubility) was 420 µg/mL (≈ 1230 µM). Also, in data set [6], the logD was determined as 0.9.

As to `Cc1cccc(Nc2nc(N[C@@H]3CCCC[C@@H]3N)ncc2C(N)=O)c1`, the pKa in data set [7] was 9.4.

With `Cc1cccc(Nc2nc(N[C@@H]3CC(F)(F)CC[C@@H]3N)ncc2C(N)=O)c1` (racemic), in data set [7], the pKa is 7.9.

As to `Cc1cccc(Nc2nc(N[C@@H]3CCOC[C@@H]3N)ncc2C(N)=O)c1`, in data set [1], the clearance was 32 mL/min/kg. Moreover, the half-life in data set [2] is 1.9 h. Further, the Vd in data set [3] came out at 4 L/kg. Besides, the bioavailability in data set [4] amounted to 14%. In data set [7], this molecule returned a pKa of 8.1.

What is called half-life is how long it takes for the measured level to halve. High values mean slow loss, low ones fast loss. One may read the bioavailability as dose-corrected exposure relative to a reference, in per cent. Read a low bioavailability as poor availability. As a reminder, the solubility is the concentration that dissolves in the medium under given conditions. Read a high solubility as much dissolved substance. What is called logD is the decadic logarithm of the distribution of all forms, ionised or not, between an organic phase and buffer at a given pH. A low value points to lower lipophilicity. The term pKa denotes the negative logarithm of the acid dissociation constant. A lower pKa goes with a stronger acid or weaker base.
